According to patent publication US20050060764A1, “Mouse model for bone metabolism” (priority 2003, published 2005):
Strand notation (5' to 3'): a small letter for the sugar, then the base; units joined by * are phosphorothioate-linked, units joined directly phosphodiester-linked; [ ] holds rarer units or linkages, { } end groups; capitals alone tell only the bases. e = 2'-O-(2-methoxyethyl) (MOE); [5mC] = 5-methylcytosine; d = 2'-deoxy (DNA)

System: rat RANKL mRNA
Assay: Antisense inhibition of rat RANKL mRNA levels in UMR-106 cells, quantitative real-time PCR (Table 3)
Format: cell-based
Parameters: concentration or dose not given beside the values
Details: averages from three experiments
Experimental: Cells were seeded onto 24-well plates (Falcon-353047) at a density of […] for use in antisense oligonucleotide transfection.
Cells are treated and data are obtained in triplicate. […] Cells were harvested 16-24 hours after oligonucleotide treatment.
PCR reagents were obtained from Invitrogen Corporation, (Carlsbad, Calif.).
Probes and primers to rat RANKL were designed to hybridize to a rat RANKL sequence, using published sequence information (GenBank accession number NM_057149.1, incorporated herein as SEQ ID NO:18). For rat RANKL the PCR primers were: • forward primer: […] (SEQ ID NO:19) • reverse primer: […] (SEQ ID NO: 20) and the • PCR probe was: FAM-[…]-TAMRA (SEQ ID NO: 21) where FAM is the fluorescent reporter dye and TAMRA is the quencher dye. For rat GAPDH the PCR primers were: • forward primer: […](SEQ ID NO:22) • reverse primer: […](SEQ ID NO:23) and the • PCR probe was: 5′ JOE-[…]-TAMRA 3′ (SEQ ID NO: 24) where JOE is the fluorescent reporter dye and TAMRA is the quencher dye.
In accordance with the present invention, a second series of antisense compounds was designed to target different regions of the rat RANKL RNA, using published sequences (GenBank accession number NM_057149.1, incorporated herein as SEQ ID NO: 18, and GenBank accession number AF425669.1, incorporated herein as SEQ ID NO: 200). […] All cytidine residues are 5-methylcytidines. […] If present, “N.D.” indicates “no data”.

Substance	% INHIB (inhibition of rat RANKL mRNA levels)
180806 (antisense eG*eG*e[5mC]*eA*eG*d[5mC]*dA*dT*dT*dG*dA*dT*dG*dG*dT*eG*eA*eG*eG*eT) [compound 180806]	9%
286586 (antisense eG*eG*eT*eA*e[5mC]*dT*dT*dG*d[5mC]*d[5mC]*dG*dT*dA*dG*dT*e[5mC]*eT*e[5mC]*eG*eG) [compound 286586]	63%
286587 (antisense eG*e[5mC]*eG*e[5mC]*eA*dG*dG*dT*dA*d[5mC]*dT*dT*dG*d[5mC]*d[5mC]*eG*eT*eA*eG*eT) [compound 286587]	50%
286588 (antisense eG*e[5mC]*eG*eA*eT*dG*d[5mC]*dT*dG*d[5mC]*dA*dG*dA*d[5mC]*d[5mC]*eA*e[5mC]*e[5mC]*eT*eG) [compound 286588]	63%
286589 (antisense eA*e[5mC]*eA*eG*eA*dG*d[5mC]*dG*dA*dT*dG*d[5mC]*dT*dG*d[5mC]*eA*eG*eA*e[5mC]*e[5mC]) [compound 286589]	49%
286590 (antisense e[5mC]*eA*eG*eG*eA*dA*d[5mC]*dA*dG*dA*dG*d[5mC]*dG*dA*dT*eG*e[5mC]*eT*eG*e[5mC]) [compound 286590]	47%
286591 (antisense eA*eA*eG*eT*eA*d[5mC]*dA*dG*dG*dA*dA*d[5mC]*dA*dG*dA*eG*e[5mC]*eG*eA*eT) [compound 286591]	17%
286592 (antisense e[5mC]*eT*e[5mC]*eG*eA*dA*dA*dG*dT*dA*d[5mC]*dA*dG*dG*dA*eA*e[5mC]*eA*eG*eA) [compound 286592]	16%
286593 (antisense e[5mC]*eT*eG*e[5mC]*eG*d[5mC]*dT*d[5mC]*dG*dA*dA*dA*dG*dT*dA*e[5mC]*eA*eG*eG*eA) [compound 286593]	49%
286594 (antisense eT*e[5mC]*e[5mC]*eA*eT*d[5mC]*dT*dG*d[5mC]*dG*d[5mC]*dT*d[5mC]*dG*dA*eA*eA*eG*eT*eA) [compound 286594]	35%
286595 (antisense eT*eA*eG*eG*eA*dT*d[5mC]*d[5mC]*dA*dT*d[5mC]*dT*dG*d[5mC]*dG*e[5mC]*eT*e[5mC]*eG*eA) [compound 286595]	46%
286596 (antisense eT*e[5mC]*eT*eG*eT*dT*dA*dG*dG*dA*dT*d[5mC]*d[5mC]*dA*dT*e[5mC]*eT*eG*e[5mC]*eG) [compound 286596]	58%
286597 (antisense eG*eA*eT*eA*eT*dT*d[5mC]*dT*dG*dT*dT*dA*dG*dG*dA*eT*e[5mC]*e[5mC]*eA*eT) [compound 286597]	57%
286598 (antisense e[5mC]*eT*eT*e[5mC]*eT*dG*dA*dT*dA*dT*dT*d[5mC]*dT*dG*dT*eT*eA*eG*eG*eA) [compound 286598]	6%
286599 (antisense e[5mC]*eG*e[5mC]*eG*eT*dG*d[5mC]*dT*dG*dT*d[5mC]*dT*dT*d[5mC]*dT*eG*eA*eT*eA*eT) [compound 286599]	46%
286600 (antisense eT*eT*e[5mC]*eT*eG*dT*dA*dG*dA*dA*dG*d[5mC]*dA*dG*d[5mC]*eG*e[5mC]*eG*eT*eG) [compound 286600]	13%
286601 (antisense eT*e[5mC]*eA*e[5mC]*eG*dG*dA*dG*dT*d[5mC]*dT*d[5mC]*dA*dG*dA*eA*eT*eT*e[5mC]*eT) [compound 286601]	63%
286602 (antisense eA*eA*e[5mC]*e[5mC]*eT*dG*dT*dA*dT*dT*dT*dT*d[5mC]*dA*d[5mC]*eG*eG*eA*eG*eT) [compound 286602]	48%
286603 (antisense eA*eG*eT*e[5mC]*eG*dA*dG*dT*d[5mC]*d[5mC]*dT*dG*d[5mC]*dA*dA*eA*e[5mC]*e[5mC]*eT*eG) [compound 286603]	59%
286604 (antisense eT*e[5mC]*e[5mC]*eA*eG*dA*dG*dT*d[5mC]*dG*dA*dG*dT*d[5mC]*d[5mC]*eT*eG*e[5mC]*eA*eA) [compound 286604]	68%
286605 (antisense eT*eT*eT*eG*e[5mC]*dA*d[5mC]*dG*dG*d[5mC]*d[5mC]*d[5mC]*d[5mC]*dT*dT*eG*eA*eA*eA*eG) [compound 286605]	53%

Substance	% INHIB (inhibition of rat RANKL mRNA levels)
286606 (antisense eT*eG*eT*eA*eA*dT*dT*d[5mC]*d[5mC]*d[5mC]*dT*dT*dT*dG*d[5mC]*eA*e[5mC]*eG*eG*e[5mC]) [compound 286606]	37%
286607 (antisense eT*eG*eT*eG*eG*d[5mC]*d[5mC]*d[5mC]*d[5mC]*dA*d[5mC]*dA*dA*dT*dG*eT*eG*eT*eT*eG) [compound 286607]	48%
286608 (antisense e[5mC]*eA*eA*eA*e[5mC]*dG*dG*d[5mC]*dT*dG*dA*dG*d[5mC]*d[5mC]*dT*e[5mC]*eA*eG*eG*e[5mC]) [compound 286608]	25%
286609 (antisense eG*e[5mC]*eA*eG*e[5mC]*dA*dT*dT*dG*dA*dT*dG*dG*dT*dG*eA*eG*eG*eT*eG) [compound 286609]	17%
286610 (antisense eA*e[5mC]*eT*eT*eT*dA*dT*dG*dG*dG*dA*dA*d[5mC]*d[5mC]*d[5mC]*eG*eA*eT*eG*eG) [compound 286610]	34%
286611 (antisense eA*eG*eA*eG*eG*dA*d[5mC]*dA*dG*dA*d[5mC]*dT*dG*dA*d[5mC]*eT*eT*eT*eA*eT) [compound 286611]	47%
286612 (antisense eT*eG*eG*eT*eA*d[5mC]*d[5mC]*dA*dA*dG*dA*dG*dG*dA*d[5mC]*eA*eG*eA*e[5mC]*eT) [compound 286612]	5%
286613 (antisense eG*eA*eT*e[5mC]*eA*dT*dG*dG*dT*dA*d[5mC]*d[5mC]*dA*dA*dG*eA*eG*eG*eA*e[5mC]) [compound 286613]	39%
286614 (antisense eA*eT*e[5mC]*eT*eT*dG*dG*d[5mC]*d[5mC]*d[5mC]*dA*dG*d[5mC]*d[5mC]*dT*e[5mC]*eG*eA*eT*e[5mC]) [compound 286614]	41%
286615 (antisense eT*eA*eG*eA*eG*dA*dT*d[5mC]*dT*dT*dG*dG*d[5mC]*d[5mC]*d[5mC]*eA*eG*e[5mC]*e[5mC]*eT) [compound 286615]	45%
286616 (antisense e[5mC]*eA*eT*eG*eT*dT*dA*dG*dA*dG*dA*dT*d[5mC]*dT*dT*eG*eG*e[5mC]*e[5mC]*e[5mC]) [compound 286616]	31%
286617 (antisense eA*eG*eT*eT*eT*dT*d[5mC]*d[5mC]*dG*dT*dT*dG*d[5mC]*dT*dT*eA*eA*e[5mC]*eG*eT) [compound 286617]	52%
286618 (antisense eA*e[5mC]*e[5mC]*e[5mC]*eT*dT*dA*dG*dT*dT*dT*dT*d[5mC]*d[5mC]*dG*eT*eT*eG*e[5mC]*eT) [compound 286618]	57%
286619 (antisense eG*eG*eT*eT*eA*dA*d[5mC]*d[5mC]*d[5mC]*dT*dT*dA*dG*dT*dT*eT*eT*e[5mC]*e[5mC]*eG) [compound 286619]	61%
286620 (antisense eA*eT*e[5mC]*eT*eT*dG*dG*dT*dT*dA*dA*d[5mC]*d[5mC]*d[5mC]*dT*eT*eA*eG*eT*eT) [compound 286620]	48%
286621 (antisense eA*eA*eG*e[5mC]*e[5mC]*dA*dT*d[5mC]*dT*dT*dG*dG*dT*dT*dA*eA*e[5mC]*e[5mC]*e[5mC]*eT) [compound 286621]	33%
286622 (antisense eA*eA*eT*eA*eG*dA*dA*dG*d[5mC]*d[5mC]*dA*dT*d[5mC]*dT*dT*eG*eG*eT*eT*eA) [compound 286622]	12%
286623 (antisense eT*eA*eA*eT*eA*dG*dA*dA*dG*d[5mC]*d[5mC]*dA*dT*d[5mC]*dT*eT*eG*eG*eT*eT) [compound 286623]	16%
286624 (antisense e[5mC]*eA*eG*eG*eT*dA*dA*dT*dA*dG*dA*dA*dG*d[5mC]*d[5mC]*eA*eT*e[5mC]*eT*eT) [compound 286624]	22%
286625 (antisense eG*e[5mC]*eG*eT*eA*d[5mC]*dA*dG*dG*dT*dA*dA*dT*dA*dG*eA*eA*eG*e[5mC]*e[5mC]) [compound 286625]	50%
286626 (antisense eT*eG*eT*eT*eG*dG*d[5mC]*dG*dT*dA*d[5mC]*dA*dG*dG*dT*eA*eA*eT*eA*eG) [compound 286626]	41%
